13 compounds from US12077522B2, “Heterocyclic compound and application thereof” (Takeda Pharmaceutical Company Limited, priority 2018, dated 2024) can be followed below.

In the assay the target is T1, human orexin type 2 receptor (Homo sapiens, UniProt O43614).
T1 construct: expressed in transfected cells
T1 sequence (O43614 1-444): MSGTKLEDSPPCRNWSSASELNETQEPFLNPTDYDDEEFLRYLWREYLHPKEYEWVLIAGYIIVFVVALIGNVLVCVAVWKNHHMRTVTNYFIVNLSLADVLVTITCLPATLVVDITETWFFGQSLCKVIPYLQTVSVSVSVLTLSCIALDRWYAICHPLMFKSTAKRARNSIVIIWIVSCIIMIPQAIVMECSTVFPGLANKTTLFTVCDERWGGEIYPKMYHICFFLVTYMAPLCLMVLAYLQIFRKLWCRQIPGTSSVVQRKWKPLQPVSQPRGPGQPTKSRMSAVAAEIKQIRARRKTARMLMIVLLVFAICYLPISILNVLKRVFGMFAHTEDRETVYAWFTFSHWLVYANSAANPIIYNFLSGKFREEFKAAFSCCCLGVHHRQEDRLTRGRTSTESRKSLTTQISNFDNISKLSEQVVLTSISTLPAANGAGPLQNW
Nature of the assay: Measurement of orexin type 2 receptor agonist activity (calcium fluorescence, Fluo-4 AM, FDSS). The format is cell-based. The settings on record: compound at 3 μM; CHO cells forcibly expressing human OX2 receptor; DMSO = 0%, orexin A (human) 10 nM = 100%. From the text: To obtain a cell clone stably expressing human orexin type 2 receptor, human orexin type 2 receptor cDNA was inserted into pcDNA3.1(+) plasmid vector (Invitrogen), and a plasmid DNA for expression of human orexin type 2 receptor (pcDNA3.1(+)/hOX2R) was cloned. The plasmid DNA was introduced into CHO-dhfr cell by an electroporation method, and human orexin type 2 receptor expressing clone cells were obtained by limiting dilution method by using G418 drug resistance as a selection marker.
CHO cells forcibly expressing human OX2 receptor were seeded in each well of 384 well black transparent bottom plate (BD Falcon) at 7,500 cells/well, and cultured for one day in a 5% CO2 incubator at 37° C. After removal of the medium in the cell plate, assay buffer A containing a calcium indicator (HBSS (Thermo Fisher Scientific), 20 mM HEPES (Thermo Fisher Scientific), 0.1% BSA (Wako Pure Chemical Industries, Ltd. or Sigma-Aldrich), 2.5 μg/mL Fluo-4 AM (DOJINDO Chemical), 0.08% Pluronic F127 (DOJINDO Chemical), 1.25 mM probenecid (DOJINDO Chemical)) was added at 30 μL/well. The plate was stood for 30 min in a 5% CO2 incubator at 37° C., and further stood at room temperature for 30 min. A test compound prepared by diluting with assay buffer B (HBSS, 20 mM HEPES, 0.1% BSA) was added at […], and the fluorescence value was measured by FDSSpCELL (Hamamatsu Photonics K.K.) every one sec for 1 min, and thereafter every two sec for 1 min 40 sec. The activity (%) of the test compound was calculated assuming that variation in the fluorescence value when DMSO was added instead of the test compound was 0%, and variation in the fluorescence value when orexin A (human) (PEPTIDE INSTITUTE, INC.) was added at the final concentration of 10 nM was 100%. The activity of each compound at the concentration of 3 μM was shown below.
For `O=C(NC1CCCN(C(=O)N2CCC2)C1COC1CCN(c2ncccn2)CC1)[C@@H]1CCCO1` (stereo in doubt) [Example 7, (2S)-N-[cis-1-(azetidine-1-carbonyl)-2-({[1-(pyrimidin-2-yl)piperidin-4-yl]oxy}methyl)piperidin-3-yl]oxolane-2-carboxamide], the “OX2R agonist activity (3 μ M, %)” value is given as 67%. Take `O=C(NC1CCCN(C(=O)N2CCC2)C1COC1CCN(c2ncc(F)cn2)CC1)[C@@H]1CCCO1` (stereo in doubt) [Example 8, (2S)-N-[cis-1-(azetidine-1-carbonyl)-2-({[1-(5-fluoropyrimidin-2-yl)piperidin-4-yl]oxy}methyl)piperidin-3-yl]oxolane-2-carboxamide]: the “OX2R agonist activity (3 μ M, %)” value is 83%. With `O=C(NC1CCCN(C(=O)C2CCC2)C1COC1CCN(c2ncccn2)CC1)[C@@H]1CCCO1` (stereo in doubt) [Example 11, (2S)-N-[cis-1-(cyclobutanecarbonyl)-2-({[1-(pyrimidin-2-yl)piperidin-4-yl]oxy}methyl)piperidin-3-yl]oxolane-2-carboxamide] the figure was 94%; with `O=C(NC1CCCN(C(=O)C2CCC2)C1COC1CCN(c2ncc(F)cn2)CC1)[C@@H]1CCCO1` (stereo in doubt) [Example 12, (2S)-N-[cis-1-(cyclobutanecarbonyl)-2-({[1-(5-fluoropyrimidin-2-yl)piperidin-4-yl]oxy}methyl)piperidin-3-yl]oxolane-2-carboxamide], 99%. For `O=C(NC1CCCN(C(=O)C2(O)CCC2)C1COC1CCN(c2ncccn2)CC1)[C@@H]1CCCO1` (stereo in doubt) [Example 13, (2S)-N-[cis-1-(1-hydroxycyclobutane-1-carbonyl)-2-({[1-(pyrimidin-2-yl)piperidin-4-yl]oxy}methyl)piperidin-3-yl]oxolane-2-carboxamide], the “OX2R agonist activity (3 μ M, %)” value amounted to 81%. With `O=C(NC1CCCN(C(=O)C2(O)CCC2)C1COC1CCN(c2ncc(F)cn2)CC1)[C@@H]1CCCO1` (stereo in doubt) [Example 14, (2S)-N-[cis-2-({[1-(5-fluoropyrimidin-2-yl)piperidin-4-yl]oxy}methyl)-1-(1-hydroxycyclobutane-1-carbonyl)piperidin-3-yl]oxolane-2-carboxamide], the “OX2R agonist activity (3 μ M, %)” value is 92%. With `CC(C)OC(=O)N1CCCC(NC(=O)[C@@H]2CCCO2)C1COC1CCN(c2ncccn2)CC1` (stereo in doubt) [Example 15, propan-2-yl cis-3-{[(2S)-oxolane-2-carbonyl]amino}-2-({[1-(pyrimidin-2-yl)piperidin-4-yl]oxy}methyl)piperidine-1-carboxylate] the figure was 96%. With `CC(C)OC(=O)N1CCCC(NC(=O)[C@@H]2CCCO2)C1COC1CCN(c2ncc(F)cn2)CC1` (stereo in doubt) [Example 16, propan-2-yl cis-2-({[1-(5-fluoropyrimidin-2-yl)piperidin-4-yl]oxy}methyl)-3-{[(2S)-oxolane-2-carbonyl]amino}piperidine-1-carboxylate], the “OX2R agonist activity (3 μ M, %)” value was 95%.

As for `CN(C)C(=O)C(=O)NC1CCCN(C(=O)C2CCC2)C1COC1CCN(c2ncc(F)cn2)CC1` (stereo not drawn) [Example 4, N^~2^~- [cis-1-(cyclobutanecarbonyl)-2-({[1-(5-fluoropyrimidin-2-yl)piperidin-4-yl]oxy}methyl)piperidin-3-yl]-N^~1^~,N^~1^~-dimethylethanediamide], the “OX2R agonist activity (3 μ M, %)” value stood at 84%. For `CCNC(=O)N1CCCC(NC(=O)C(=O)N(C)C)C1CO[C@H]1CC[C@@H](c2ccccc2)CC1` (stereo partly drawn) [Example 18, N^~2^~-[cis-1-(ethylcarbamoyl)-2-({[cis-4-phenylcyclohexyl]oxy}methyl)piperidin-3-yl]-N^~1^~,N^~1^~- dimethylethanediamide], the “OX2R agonist activity (3 μ M, %)” value is listed as 98%. Turning to `CCNC(=O)N1CCCC(NC(=O)C(=O)N(C)C)C1CO[C@H]1CC[C@@H](c2ccc(F)cc2)CC1` (stereo partly drawn) [Example 19, N^~2^~-[cis-1-(ethylcarbamoyl)-2-({[cis-4-(4-fluorophenyl)cyclohexyl]oxy}methyl)piperidin-3-yl]-N^~1^~,N^~1^~- dimethylethanediamide], the “OX2R agonist activity (3 μ M, %)” value was determined as 75%. With `CCNC(=O)N1CCCC(NC(=O)C(=O)N(C)C)C1CO[C@H]1CC[C@@H](c2cccc(F)c2)CC1` (stereo partly drawn) [Example 21, N^~2^~-[cis-1-(ethylcarbamoyl)-2-({[cis-4-(3-fluorophenyl)cyclohexyl]oxy}methyl)piperidin-3-yl]-N^~1^~,N^~1^~- dimethylethanediamide], the “OX2R agonist activity (3 μ M, %)” value was 102%. For the compound `CCNC(=O)N1CCCC(NC(=O)C(=O)N(C)C)C1CO[C@H]1CC[C@@H](c2ccccc2F)CC1` (stereo partly drawn) [Example 22, N^~2^~-[cis-1-(ethylcarbamoyl)-2-({[cis-4-(2-fluorophenyl)cyclohexyl]oxy}methyl)piperidin-3-yl]-N^~1^~,N^~1^~- dimethylethanediamide], the “OX2R agonist activity (3 μ M, %)” value amounted to 99%.
